Measurements from patent US4159328A, “Tetrahydro-1,3,5-thiadiazin-4-one derivative” (Nihon Nohyaku Co., Ltd., priority 1977, dated 1979).

How the values were obtained:
Assay type in all cases: in vivo
[1] = tested on: cirrus red mite (Panonychus citri McGregor); assay: Test Example 4: activity to citrus red mite (Rothamstead method); parameters: concentration or dose not given beside the values; conditions: two days after treatment, 25° C.; 2880 min
Experimental: Activity to cirrus red mite (Panonychus citri McGregor).
Testing method: The test was performed by Rothamstead method. A test composition was sprayed by means of a spray gun over grapefruit leaves infested with citrus red mites. After air-drying the grapefruit was left standing in a constant temperature cabinet at 25° C. Two days after the treatment, the number of survived mites was counted to calculate the mortality.

[2] = tested on: larvae of green rice leafhopper (Nephotettix cincticeps Uhler); assay: Test Example 5: activity against larvae of green rice leafhopper; conditions: 168 h, 400 ppm, second-instar larvae, 25° C., seven days after treatment, read-out: Mortality
Experimental: Activity against larvae of green rice leafhopper (Nephotettix cincticeps Uhler).
Testing method: Five rice seedlings of the 1.5 leaf age were dipped in a test composition of 400 ppm concentration for 30 seconds. After air-drying, the seedlings were placed in a glass tube containing 1 ml of water and infested with five second-instar larvae of green rice leafhopper. The glass tube was left standing in a constant temperature cabinet at 25° C. Seven days after the treatment, dead-and-survivalwas inspected to calculate the mortality (3-replication test).

[3] = tested on: two-spotted spider mite (Tetranychus urticae Koch); assay: Test Example 3: activity to two-spotted spider mite
Text: Activity to two-spotted spider mite (Tetranychus urticae Koch).
Testing method: Two-spotted spider mites were set free on the pot-planted soybean in a greenhouse. On the next day, a test composition of 1,000 ppm concentration was sprayed over the soybean by means of a spray gun. Two days or five days after the treatment, dead-and-survival was inspected to calculate the mortality.

[4] = tested on: larvae of brown planthopper (Nilaparvata lugens Stahl); assay: Test Example 1: insecticidal activity against larvae of brown planthopper; conditions: third-instar larvae, 25° C.
Outline: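 Rice seedlings at 1.5-leaf stage were dipped for 30 s in a 400 ppm test composition, air-dried, and infested with third-instar N. lugens larvae. After holding at 25 °C, mortality was scored 5 or 7 days post-treatment from three replicates.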

[5] = tested on: larvae of white-backed planthopper (Sogatella furcifera Horvath); assay: Test Example 2: insecticidal activity against larvae of white-backed planthopper; conditions: 168 h, 400 ppm, first-instar larvae, 25° C., seven days after treatment, read-out: Mortality
Experimental: Insecticidal activity against larvae of white-backed planthopper (Sogatella furcifera Horvath).
Testing method: Five rice seedlings of the 1.5 leaf age were dipped in a test composition of 400 ppm concentration for 30 seconds. After air-drying, the seedlings were placed in a glass tube containing 1 ml of water and infested with five first-instar larvae of white-backed planthopper. The glass tube was left standing in a constant temperature cabinet at 25° C. and seven days after the treatment, dead-and-survival was observed. Mortality was calculated from the results of 3-replication test.

[6] = tested on: larvae of house mosquito (Culex pipiens pallens Coquillett); assay: Test Example 6: insecticidal activity to larvae of house mosquito; conditions: 120 h
Experimental: Insecticidal activity to larvae of house mosquito (Culex pipiens pallens Coquillett).
Test method: In a 200-ml beaker, was placed together with a feed 100 ml of a test composition diluted with deionized water to 10 ppm concentration. The test composition was infested with 20 first-instar larvae of house mosquito and the beaker was covered with a sheet of Japanese paper. The beaker was kept in a constant temperature cabinet at 25° C. Five days after the treatment, the dead-and-survival was inspected to calculate the mortality.

[7] = 48 h, 1,000 ppm, 2 days after treatment

| SMILES | Mortality [1] [%] | mortality at 400 ppm [2] [%] | mortality at 1000 ppm ([3]; 120 h, 1,000 ppm, 5 days after treatment) [%] | mortality at 400 ppm ([4]; 120 h, 5 days after treatment) [%] | mortality at 1000 ppm [3, 7] [%] | mortality at 400 ppm [5] [%] | mortality at 400 ppm ([4]; 168 h, 7 days after treatment) [%] | mortality at 10 ppm [6] [%] | mortality at 400 ppm ([4]; 5 or 7 days after treatment (No. 123 not covered by footnote)) [%] |
| --- | --- | --- | --- | --- | --- | --- | --- | --- | --- |
| Cc1ccccc1N=C1SCN(c2ccccc2)C(=O)N1C [Compound 124, 2-(2-Methyl)phenylimino-3-methyl-5-phenyltetrahydro-1,3,5-thiadiazin-4-one] | 100 | – | – | – | – | – | – | – | – |
| CCCCCCN1C(=O)N(c2ccccc2)CSC1=NC(C)C [Compound 153] | 100 | 100 | – | – | – | – | – | – | – |
| CCOc1ccc(N2CSC(=NC(C)(C)C)N(C(C)CC)C2=O)cc1 (stereo not drawn) [Compound 368, 2-t-Butylimino-3-s-butyl-5-(4-ethoxyphenyl)tetrahydro-1,3,5-thiadiazin-4-one] | 100 | – | 100 | 80 | – | – | – | – | – |
| CC(C)N=C1SCN(C(C)(C)CC(C)(C)C)C(=O)N1C [Compound 59] | 100 | 100 | – | – | 100 | 100 | 100 | – | – |
| CCCCCCN1CSC(=NC(C)C)N(C(C)C)C1=O [Compound 51] | 50 | 50 | – | – | 100 | 100 | 100 | – | – |
| CC(C)N=C1SCN(C)C(=O)N1C(C)C [Compound 2, 2-Isopropylimino-3-isopropyl-5-methyl-tetrahydro-1,3,5-thiadiazin-4-one] | 50 | 50 | – | – | 100 | 100 | 100 | – | – |
| CN=C1SCN(C(C)C)C(=O)N1C [Compound 16] | 100 | 100 | – | – | 100 | 100 | 100 | – | – |
| COc1ccc(Cl)cc1N1C(=O)N(Cc2ccccc2)CSC1=NC(C)C [Compound 87] | 100 | 80 | – | – | 100 | 100 | 100 | – | – |
| C=CCN1CSC(=NC(C)C)N(C)C1=O [Compound 10] | 80 | 100 | – | – | 100 | 100 | 100 | – | – |
| CN=C1SCN(c2ccc(C)cc2)C(=O)N1C [Compound 309] | 100 | – | – | – | – | – | – | – | – |
| CN=C1SCN(C(C)C)C(=O)N1c1ccc(Cl)cc1C [Compound 68] | 50 | 50 | – | – | 100 | 100 | 100 | – | – |
| CCCN=C1SCN(C(C)(C)C)C(=O)N1C [Compound 32] | 100 | 50 | – | – | 100 | 100 | 100 | – | – |
| CC(C)CN1CSC(=NC(C)C)N(C(C)C)C1=O [Compound 27] | 100 | 80 | – | – | 80 | 100 | 100 | – | – |
| CN=C1SCN(c2ccccc2)C(=O)N1C [Compound 115, 2-Methylimino-3-methyl-5-phenyl-tetrahydro-1,3,5-thiadiazin-4-one] | 100 | – | – | – | – | – | – | – | – |
| CCN1C(=O)N(C(C)(C)C)CSC1=NC(C)(C)C [Compound 42] | 100 | 80 | – | – | 100 | 100 | 100 | – | – |
| CCC(C)N=C1SCN(C(C)(C)C)C(=O)N1C (stereo not drawn) [Compound 35] | 100 | 50 | – | – | 100 | 100 | 100 | – | – |
| CCCCCCCCN1CSC(=NC(C)C)N(C)C1=O [Compound 65] | 100 | 50 | – | – | 100 | 100 | 100 | – | – |
| CCCCCCN=C1SCN(c2ccc(F)cc2)C(=O)N1CCC [Compound 281] | 100 | – | – | – | – | – | – | – | – |

| SMILES | Mortality [1] [%] | mortality at 400 ppm [2] [%] | mortality at 1000 ppm ([3]; 120 h, 1,000 ppm, 5 days after treatment) [%] | mortality at 400 ppm ([4]; 120 h, 5 days after treatment) [%] | mortality at 1000 ppm [3, 7] [%] | mortality at 400 ppm [5] [%] | mortality at 400 ppm ([4]; 168 h, 7 days after treatment) [%] | mortality at 10 ppm [6] [%] | mortality at 400 ppm ([4]; 5 or 7 days after treatment (No. 123 not covered by footnote)) [%] |
| --- | --- | --- | --- | --- | --- | --- | --- | --- | --- |
| CN1C(=O)N(C(C)(C)C)CSC1=NC(C)(C)C [Compound 37] | 100 | 50 | – | – | 100 | 100 | 100 | – | – |
| Cc1ccc(N2CSC(=NC(C)C)N(C)C2=O)cc1 [Compound 310] | 100 | – | – | – | – | – | – | 100 | – |
| CN=C1SCN(C(C)(C)C)C(=O)N1C [Compound 31, 2-Methylimino-3-methyl-5-t-butyl-tetrahydro-1,3,5-thiadiazin-4-one] | 100 | 50 | – | – | 100 | 100 | 80 | – | – |
| CN1C(=O)N(C(C)(C)CC(C)(C)C)CSC1=NC(C)(C)C [Compound 63, 2-t-Butylimino-3-methyl-5-(1,1,3,3-tetramethyl)-butyl-tetrahydro-1,3,5-thiadiazin-4-one] | 50 | 80 | – | – | 80 | 100 | 100 | – | – |
| CCN1CSC(=NC(C)C)N(C(C)C)C1=O [Compound 8] | 80 | 80 | – | – | 100 | 100 | 100 | – | – |
| CN=C1SCN(C(C)(C)C)C(=O)N1c1ccc(F)cc1 [Compound 71] | 50 | 50 | – | – | 100 | 80 | 80 | – | – |
| CN=C1SCN(C(C)C)C(=O)N1c1ccccc1 [Compound 66, 2-Methylimino-3-phenyl-5-isopropyltetrahydro-1,3,5-thiadiazin-4-one] | 50 | 80 | – | – | 100 | 100 | 100 | – | – |
| CC(C)N=C1SCN(C(C)(C)C)C(=O)N1c1ccccc1 [Compound 75] | 50 | 50 | – | – | 80 | 100 | 100 | – | – |
| CC(C)N=C1SCN(C(C)(C)C)C(=O)N1C [Compound 33] | 100 | 100 | – | – | 100 | 100 | 100 | – | – |
| C=CCN1CSC(=NC)N(C)C1=O [Compound 9] | 50 | 100 | – | – | 80 | 100 | 100 | – | – |
| CCN=C1SCN(C(C)(C)C)C(=O)N1c1ccccc1C [Compound 80, 2-Ethylimino-3-o-tolyl-5-t-butyl-tetrahydro-1,3,5-thiadiazin-4-one] | 100 | 50 | – | – | 80 | 100 | 100 | – | – |
| CCN1CSC(=NC(C)(C)C)N(C)C1=O [Compound 6] | 80 | 80 | – | – | 100 | 100 | 100 | – | – |
| CC(C)N=C1SCN(C(C)C)C(=O)N1C [Compound 18, 2-Isopropylimino-3-methyl-5-isopropyl-tetrahydro-1,3,5-thiadiazin-4-one] | 100 | 100 | – | – | 80 | 100 | 100 | – | – |
| CCC(C)N1CSC(=NC(C)C)N(C)C1=O (stereo not drawn) [Compound 29] | 100 | 80 | – | – | 100 | 100 | 100 | – | – |
| CN1C(=O)N(C2CCCCC2)CSC1=NC(C)(C)C [Compound 53] | 100 | 50 | – | – | 100 | 80 | 80 | – | – |
| CN1C(=N)SCN(c2ccccc2)C1=O [Compound 123] | 100 | – | – | – | – | – | – | – | 100 |
| CCCCCCCCN1C(=O)N(c2ccccc2)CSC1=NC(C)CC (stereo not drawn) [Compound 161] | 100 | – | – | – | – | – | – | – | – |
